Data: the NIST ThermoML archive (doi:10.1016/j.jct.2012.05.021)
Numbers after ± are expanded uncertainties.

Details: Crystal; visual observation

| SMILES | Normal melting temperature [°C] |
| --- | --- |
| CC(C)NCC(O)COc1ccc(CC(N)=O)cc1 (configuration not stated) [2-(4-(2-hydroxy-3-(isopropylamino)propoxy)phenyl)acetamide] | 154.50 ± 0.4 |
| CC(C)NCC(O)COc1cccc2ccccc12.Cl (configuration not stated) [propranolol hydrochloride] | 164.80 ± 0.4 |
